Results: patent publication US10888720B2, “Gentiopicroside free gentiana extract” (DSM IP ASSETS B.V., priority 2015, dated 2021)

Assays:
DNA = details: K. Mustafayeva et al., J. Nat. Prod. 2010, 73, 99-103; cited from earlier work
[1] = tested on: Normal human fibroblasts (NHF); assay: Hyaluronan production (Hyaluronan Assay Kit); type: cell-based; details: TGFbeta1 10 ng/ml, positive control
Experimental: Gentiana extract (Gentiana acaulis/Gentiana septemfida, 25/75 m/m) was used. Normal human fibroblasts (NHF) P2+1 were seeded at 5000 cell/well in 96 well cell culture plates (Nunclon) in MEM 10% FCS (Pan Biotech). After three days of growth, Gentiana extract solution was added in medium without FCS and incubated the cells for an additional three days. Secreted hyaluronan in the growth medium was measured using a Hyaluronan Assay Kit (K-1200, Echelon, Salt Lake City, Utah).

| Compound | genotoxic effects reported (DNA) | stimulation of hyaluronan production compared to untreated cells [1] [%] |
| --- | --- | --- |
| C=C[C@@H]1C2=CCOC(=O)C2=CO[C@H]1O[C@@H]1O[C@H](CO)[C@@H](O)[C@H](O)[C@H]1O [gentiopicroside] | DNA damaging, mutagenic, and clastogenic effects | – |
| TGFbeta1: TGFbeta1 (10 ng/ml), served as positive control for hyaluronan production | – | 45.6±1.1 |
